Test results reported in ChEMBL document CHEMBL1201862, “PubChem BioAssay data set” (2004).
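Values below derive from 48-hour exposures of cells grown in 96-well plates, with endpoints linearly interpolated between the two concentrations bracketing the appropriate inhibition level. Here, GI50 denotes the concentration required for 50% inhibition of growth.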 The source made the active and inactive calls. No stated cut-off is given here; in the data, active = GI50 up to about 1.1 µM and inactive = higher.

Tests used:
Test in all cases: NCI anticancer screen, dose series, 48 h
SK-OV-3 = system: SK-OV-3
OVCAR-5 = system: OVCAR-5
HCT-15 = system: HCT-15
RPMI-8226 = system: RPMI-8226
COLO 205 = system: COLO 205
CCRF-CEM = system: CCRF-CEM
HOP-92 = system: HOP-92
ACHN = system: ACHN
SF-539 = system: SF-539
HOP-18 = system: HOP-18
UO-31 = system: UO-31
OVCAR-4 = system: OVCAR-4
NCI-H522 = system: NCI-H522
M14 = system: M14
A549 = system: A549
TK-10 = system: TK-10
RXF 393 = system: RXF 393
MDA-N = system: MDA-N
BT-549 = system: BT-549
NCI/ADR-RES = system: NCI/ADR-RES

Row | SMILES | GI50 (SK-OV-3) | GI50 (OVCAR-5) | GI50 (HCT-15) | GI50 (RPMI-8226) | GI50 (COLO 205) | GI50 (CCRF-CEM) | GI50 (HOP-92) | GI50 (ACHN) | GI50 (SF-539) | GI50 (HOP-18) | GI50 (UO-31) | GI50 (OVCAR-4) | GI50 (NCI-H522) | GI50 (M14) | GI50 (A549) | GI50 (TK-10) | GI50 (RXF 393) | GI50 (MDA-N) | GI50 (BT-549) | GI50 (NCI/ADR-RES)
1 | Cn1c(O)c(C(=O)NC2CCCCC2)c(=O)n(C)c1=S | 5.64 µM (inactive) | 14.5 µM (inactive) | 5.02 µM | 4.32 µM (inactive) | 1.94 µM (inactive) | 5.83 µM (inactive) | 3.59 µM (inactive) | 3.57 µM (inactive) | 9.16 µM (inactive) | 3.6 µM (inactive) | 3.24 µM (inactive) | 6.75 µM (inactive) | 3.58 µM (inactive) | 8.02 µM (inactive) | 3.3 µM (inactive) | 6.32 µM (inactive) |  |  |  | 
2 | COC(=O)C(=O)C(C(=O)C=C(C)C)C(=O)C(=O)Nc1cccc(C(C)=O)c1 (centres undefined) | > 100 µM (inactive) | > 100 µM (inactive) | > 100 µM | > 100 µM (inactive) | > 100 µM (inactive) | > 100 µM (inactive) |  | > 100 µM (inactive) | > 100 µM (inactive) | > 100 µM (inactive) | > 100 µM (inactive) | > 100 µM (inactive) | > 100 µM (inactive) | > 100 µM (inactive) | > 100 µM (inactive) | > 100 µM (inactive) | > 100 µM (inactive) |  |  | 
3 | CCN(CC(=O)O)CC(=O)O | > 100 µM (inactive) | > 100 µM (inactive) | > 100 µM | > 100 µM (inactive) | > 100 µM (inactive) | > 100 µM (inactive) | > 100 µM (inactive) | > 100 µM (inactive) | > 100 µM (inactive) |  | > 100 µM (inactive) | > 100 µM (inactive) | > 100 µM (inactive) | > 100 µM (inactive) | > 100 µM (inactive) | > 100 µM (inactive) | > 100 µM (inactive) | > 100 µM (inactive) | > 100 µM (inactive) | > 100 µM (inactive)
4 | CCN(CC)CCSc1c(C(C)=O)c(=O)n(-c2ccccc2)c(=S)n1-c1ccccc1 | 34 µM (inactive) | 21 µM (inactive) | 2.8 µM | 2.13 µM (inactive) | 1.8 µM (inactive) | 0.571 µM (active) | 1.9 µM (inactive) | 3.77 µM (inactive) | 2.4 µM (inactive) |  | 1.96 µM (inactive) | 9.1 µM (inactive) | 2.21 µM (inactive) | 2.05 µM (inactive) | 13.8 µM (inactive) | 5.47 µM (inactive) | 1.9 µM (inactive) | 6.68 µM (inactive) | 15.5 µM (inactive) | 22.2 µM (inactive)
5 | Cc1nc(-c2ccccc2)c(-c2ccccc2)s1 | 22.9 µM (inactive) | 27.6 µM (inactive) | 17.7 µM | 14.3 µM (inactive) | 18.3 µM (inactive) | 16.5 µM (inactive) | 20.6 µM (inactive) | 26.9 µM (inactive) | 22.6 µM (inactive) |  | 20.2 µM (inactive) | 19.6 µM (inactive) | 18.6 µM (inactive) | 19.9 µM (inactive) | 25.8 µM (inactive) | 19.7 µM (inactive) | 19.4 µM (inactive) | 11.4 µM (inactive) | 23.9 µM (inactive) | 24.2 µM (inactive)
6 | C=C1CC2(CC(c3ccccc3C)OC(c3ccccc3C)C2)OC1=O (centres undefined) | 11.6 µM (inactive) | 13.2 µM (inactive) | 1.95 µM | 0.473 µM (active) | 1.9 µM (inactive) | 2.04 µM (inactive) | 1.76 µM (inactive) | 2.36 µM (inactive) | 1.62 µM (inactive) |  | 4.08 µM (inactive) | 2.27 µM (inactive) | 1.73 µM (inactive) | 1.59 µM (inactive) | 8.47 µM (inactive) | 1.74 µM (inactive) | 2.29 µM (inactive) | 1.75 µM (inactive) | 1.92 µM (inactive) | 3.48 µM (inactive)
7 | COc1cc(OC)cc(Oc2nc3ccccc3nc2C(F)(F)F)c1 | > 100 µM (inactive) | 45.1 µM (inactive) | 51.4 µM | > 100 µM (inactive) | > 100 µM (inactive) | 0.986 µM (active) | 42 µM (inactive) | > 100 µM (inactive) | 52.5 µM (inactive) |  | > 100 µM (inactive) | > 100 µM (inactive) | > 100 µM (inactive) | 53.8 µM (inactive) | > 100 µM (inactive) | > 100 µM (inactive) | 19.5 µM (inactive) | 3.66 µM (inactive) | > 100 µM (inactive) | > 100 µM (inactive)
8 | CN1CCN(C(=O)c2cn(Cc3cncn3Cc3ccc4c(c3)OCO4)cc2-c2cccc3ccccc23)CC1 | 22.7 µM (inactive) | 24.8 µM (inactive) | 17 µM | 7.05 µM (inactive) | 14.7 µM (inactive) | 4.71 µM (inactive) | 1.03 µM (active) | 9.98 µM (inactive) | 21.1 µM (inactive) |  | 7.66 µM (inactive) | 22.3 µM (inactive) | 5.86 µM (inactive) | 0.273 µM (active) | 16.9 µM (inactive) | 29.1 µM (inactive) | 30 µM (inactive) | 0.378 µM (active) | 9.75 µM (inactive) | 28.2 µM (inactive)
9 | CCOC(=O)C1OC(C2(C)OC3(OC4(C=CC3O)OC(C(C)C(=O)C(C)C(O)C(C)CC(C)c3c(Cl)cc(C)c(O)c3C(=O)O)C(C)CC4C)C(C)C2OC)CC1O (centres undefined) | 0.177 µM (active) | 2.69 µM (inactive) | 0.453 µM | 0.54 µM (active) | 0.818 µM (active) | 0.0828 µM (active) | 2.13 µM (inactive) | 0.441 µM (active) | 0.65 µM (active) |  | 1.18 µM (inactive) | 0.544 µM (active) | < 0.0803 µM (active) | 0.48 µM (active) | 0.406 µM (active) | 2.34 µM (inactive) | 0.647 µM (active) | 0.55 µM (active) | 2.08 µM (inactive) | 1.24 µM (inactive)
10 | OC(c1cc(-c2ccc(Cl)cc2)nc2ccccc12)C1CCCCN1 (centres undefined) | 2.16 µM (inactive) | 2.16 µM (inactive) | 2.46 µM | 1.37 µM (inactive) | 1.73 µM (inactive) | 0.498 µM (active) | 3.37 µM (inactive) | 1.95 µM (inactive) | 1.79 µM (inactive) |  | 1.15 µM (inactive) | 2.28 µM (inactive) | 1.27 µM (inactive) | 1.77 µM (inactive) | 1.84 µM (inactive) | 4.32 µM (inactive) | 0.368 µM (active) | 1.95 µM (inactive) | 5.09 µM (inactive) | 2.38 µM (inactive)
11 | Cn1c(N)[n+](C(=O)OCc2ccccc2)c(=O)c2c1ncn2C(=O)OCc1ccccc1 | 28.9 µM (inactive) | > 100 µM (inactive) | > 100 µM | > 100 µM (inactive) | > 100 µM (inactive) | > 100 µM (inactive) |  | 24.4 µM (inactive) |  | 78.9 µM (inactive) | 14.4 µM (inactive) | 65.2 µM (inactive) | 30.9 µM (inactive) | 50.9 µM (inactive) | 73.1 µM (inactive) | 46.7 µM (inactive) |  |  |  | 
12 | COc1cc(Oc2c(C)c(Cl)c(OC)c(Cl)c2OC)c2c(c1Cl)COC2=O | 41.5 µM (inactive) | 47.1 µM (inactive) | 13.9 µM | 3.52 µM (inactive) | 20.9 µM (inactive) | 45.1 µM (inactive) | 54 µM (inactive) | 12.9 µM (inactive) | 31.5 µM (inactive) |  | 10.8 µM (inactive) | 10.8 µM (inactive) | 11.5 µM (inactive) | 27.7 µM (inactive) | 34.4 µM (inactive) | 71.3 µM (inactive) | 35.6 µM (inactive) | 14.3 µM (inactive) | 43.6 µM (inactive) | 17.1 µM (inactive)
13 | CC(C)Oc1cccc(N2C(NCc3c[nH]c4ccccc34)=Nc3ccncc3S2(=O)=O)c1 | 33.2 µM (inactive) | 47.8 µM (inactive) | 22.5 µM | 7.01 µM (inactive) | 11.2 µM (inactive) | 35.2 µM (inactive) | 15.4 µM (inactive) | 20.4 µM (inactive) | 53.6 µM (inactive) |  | 47.4 µM (inactive) | 34.4 µM (inactive) | 17.4 µM (inactive) | 21 µM (inactive) | 20.4 µM (inactive) | 25.2 µM (inactive) | 40.3 µM (inactive) | 31.6 µM (inactive) | 34.8 µM (inactive) | 19.7 µM (inactive)
14 | O=C(O)CSc1ccc(N=C=S)cc1 | > 100 µM (inactive) | > 100 µM (inactive) | 62.8 µM | 20.8 µM (inactive) | 53.2 µM (inactive) | 12.6 µM (inactive) | > 100 µM (inactive) | > 100 µM (inactive) | 30.5 µM (inactive) |  | > 100 µM (inactive) | > 100 µM (inactive) | 19.1 µM (inactive) | 86.1 µM (inactive) | > 100 µM (inactive) | 75 µM (inactive) | 28.4 µM (inactive) | 54.1 µM (inactive) | 56.2 µM (inactive) | > 100 µM (inactive)
15 | Cc1cc(C(C)(C)C)cc(CNC2CCCCC2)c1O | 20 µM (inactive) | 16.2 µM (inactive) | 16.6 µM | 17.5 µM (inactive) | 17.3 µM (inactive) | 17.9 µM (inactive) | 15.5 µM (inactive) | 17.1 µM (inactive) | 18.2 µM (inactive) |  | 14.9 µM (inactive) | 19.5 µM (inactive) | 12.6 µM (inactive) | 15.7 µM (inactive) | 18.4 µM (inactive) | 16.1 µM (inactive) | < 0.01 µM (active) | 16.3 µM (inactive) | 16.3 µM (inactive) | 16.4 µM (inactive)
16 | CCO/C([O-])=C(\C(=O)c1ccccc1)[n+]1c(C)sc2ccccc21 | > 100 µM (inactive) | > 100 µM (inactive) | 21.9 µM | 59 µM (inactive) | 83.6 µM (inactive) | > 100 µM (inactive) |  |  | 93.3 µM (inactive) | 20 µM (inactive) | 50.6 µM (inactive) | 96.6 µM (inactive) | 81.3 µM (inactive) | > 100 µM (inactive) | 45.5 µM (inactive) | > 100 µM (inactive) | > 100 µM (inactive) |  |  | 
